≈ marks a conversion by molar mass, not a printed value.
How the values were obtained:
Escherichia coli [1] = assay: Antibacterial activity against extended-spectrum beta-lactamase deficient Escherichia coli 12-14 after 18 hrs by CLSI broth microdilution method; format: functional; settings: 12-14, 18 h
Providencia rettgeri = assay: Antibacterial activity against Providencia rettgeri ATCC 31052 after 18 hrs by CLSI broth microdilution method; format: functional; settings: ATCC 31052, 18 h
[2] = system: Staphylococcus epidermidis; assay: Antibacterial activity against methicillin-sensitive Staphylococcus epidermidis 12-6 after 18 hrs by CLSI broth microdilution method; format: functional; settings: 12-6, 18 h
[3] = system: Staphylococcus epidermidis; assay: Antibacterial activity against methicillin-sensitive Staphylococcus epidermidis ATCC 12228 after 18 hrs by CLSI broth microdilution method; format: functional; settings: ATCC 12228, 18 h
[4] = Cytotoxicity against HEK293T cells assessed as reduction in cell viability after 48 hrs by MTS assay; format: cell-based, HEK-293T; settings: human
Klebsiella pneumoniae [5] = assay: Antibacterial activity against extended-spectrum beta-lactamase deficient Klebsiella pneumoniae 12-4 after 18 hrs by CLSI broth microdilution method; format: functional; settings: 12-4, 18 h
Enterococcus faecalis [6] = assay: Antibacterial activity against vancomycin-sensitive Enterococcus faecalis 12-5 after 18 hrs by CLSI broth microdilution method; format: functional; settings: 12-5, 18 h
Enterococcus faecium [7] = assay: Antibacterial activity against vancomycin-resistant Enterococcus faecium ATCC 700221 after 18 hrs by CLSI broth microdilution method; format: functional; settings: ATCC 700221, 18 h
Staphylococcus aureus [8] = assay: Antibacterial activity against methicillin-sensitive Staphylococcus aureus ATCC 29213 after 18 hrs by CLSI broth microdilution method; format: functional; settings: ATCC 29213, 18 h
Enterococcus faecalis [9] = assay: Antibacterial activity against vancomycin-resistant Enterococcus faecalis 09-9 after 18 hrs by CLSI broth microdilution method; format: functional; settings: 09-9, 18 h
Staphylococcus aureus [10] = assay: Antibacterial activity against methicillin-sensitive Staphylococcus aureus 15 after 18 hrs by CLSI broth microdilution method; format: functional; settings: Staphylococcus aureus, 15, 18 h
Enterococcus faecium [11] = assay: Antibacterial activity against vancomycin-sensitive Enterococcus faecium 12-3 after 18 hrs by CLSI broth microdilution method; format: functional; settings: 12-3, 18 h
Pseudomonas aeruginosa [12] = assay: Antibacterial activity against Pseudomonas aeruginosa 12-16 after 18 hrs by CLSI broth microdilution method; format: functional; settings: 12-16, 18 h
Proteus mirabilis = assay: Antibacterial activity against Proteus mirabilis 12-6 after 18 hrs by CLSI broth microdilution method; format: functional; settings: 12-6, 18 h
Pseudomonas aeruginosa [13] = assay: Antibacterial activity against Pseudomonas aeruginosa ATCC 27853 after 18 hrs by CLSI broth microdilution method; format: functional; settings: ATCC 27853, 18 h
Pseudomonas aeruginosa [14] = assay: Antibacterial activity against Pseudomonas aeruginosa PAO1 after 18 hrs by CLSI broth microdilution method; format: functional; settings: PAO1, 18 h
Citrobacter freundii = assay: Antibacterial activity against Citrobacter freundii ATCC 43864 after 18 hrs by CLSI broth microdilution method; format: functional; settings: ATCC 43864, 18 h
[15] = system: Acinetobacter calcoaceticus; assay: Antibacterial activity against Acinetobacter calcoaceticus ATCC 19606 after 18 hrs by CLSI broth microdilution method; format: functional; settings: ATCC 19606, 18 h
Enterococcus faecalis [16] = assay: Antibacterial activity against vancomycin-sensitive Enterococcus faecalis ATCC 29212 after 18 hrs by CLSI broth microdilution method; format: functional; settings: ATCC 29212, 18 h
Enterococcus faecium [17] = assay: Antibacterial activity against vancomycin-resistant Enterococcus faecium 12-1 after 18 hrs by CLSI broth microdilution method; format: functional; settings: 12-1, 18 h
Klebsiella pneumoniae [18] = assay: Antibacterial activity against new delhi metallo-beta-lactamase-1 harboring Klebsiella pneumoniae ATCC BAA-2146 after 18 hrs by CLSI broth microdilution method; format: functional; settings: ATCC BAA-2146, 18 h
Enterococcus faecalis [19] = assay: Antibacterial activity against vancomycin-resistant Enterococcus faecalis ATCC 51299 after 18 hrs by CLSI broth microdilution method; format: functional; settings: ATCC 51299, 18 h
Enterobacter cloacae = assay: Antibacterial activity against Enterobacter cloacae ATCC 43560 after 18 hrs by CLSI broth microdilution method; format: functional; settings: ATCC 43560, 18 h
Escherichia coli [20] = assay: Antibacterial activity against extended-spectrum beta-lactamase harboring Escherichia coli 12-15 after 18 hrs by CLSI broth microdilution method; format: functional; settings: 12-15, 18 h
Proteus vulgaris = assay: Antibacterial activity against Proteus vulgaris ATCC 29905 after 18 hrs by CLSI broth microdilution method; format: functional; settings: ATCC 29905, 18 h
Klebsiella pneumoniae [21] = assay: Antibacterial activity against extended-spectrum beta-lactamase deficient Klebsiella pneumoniae 7 after 18 hrs by CLSI broth microdilution method; format: functional; settings: Klebsiella pneumoniae, 7, 18 h
Staphylococcus aureus [22] = assay: Antibacterial activity against methicillin-sensitive Staphylococcus aureus 12-28 after 18 hrs by CLSI broth microdilution method; format: functional; settings: 12-28, 18 h
Escherichia coli [23] = assay: Antibacterial activity against extended-spectrum beta-lactamase deficient Escherichia coli 1515 after 18 hrs by CLSI broth microdilution method; format: functional; settings: Escherichia coli, 1515, 18 h
[24] = system: Staphylococcus epidermidis; assay: Antibacterial activity against methicillin-resistant Staphylococcus epidermidis 12-8 after 18 hrs by CLSI broth microdilution method; format: functional; settings: 12-8, 18 h
Klebsiella pneumoniae [25] = assay: Antibacterial activity against extended-spectrum beta-lactamase harboring Klebsiella pneumoniae 12-8 after 18 hrs by CLSI broth microdilution method; format: functional; settings: 12-8, 18 h
Klebsiella pneumoniae [26] = assay: Antibacterial activity against extended-spectrum beta-lactamase harboring Klebsiella pneumoniae ATCC 700603 after 18 hrs by CLSI broth microdilution method; format: functional; settings: Klebsiella pneumoniae, 700603, 18 h
Klebsiella aerogenes = assay: Antibacterial activity against Enterobacter aerogenes ATCC 13048 after 18 hrs by CLSI broth microdilution method; format: functional; settings: ATCC 13048, 18 h
Staphylococcus aureus [27] = assay: Antibacterial activity against methicillin-resistant Staphylococcus aureus ATCC 33591 after 18 hrs by CLSI broth microdilution method; format: functional; settings: ATCC 33591, 18 h
Serratia marcescens = assay: Antibacterial activity against Serratia marcescens ATCC 21074 after 18 hrs by CLSI broth microdilution method; format: functional; settings: ATCC 21074, 18 h
Escherichia coli [28] = assay: Antibacterial activity against extended-spectrum beta-lactamase deficient Escherichia coli ATCC 25922 after 18 hrs by CLSI broth microdilution method; format: functional; settings: ATCC 25922, 18 h
[29] = system: Stenotrophomonas maltophilia; assay: Antibacterial activity against Stenotrophomonas maltophilia ATCC 13636 after 18 hrs by CLSI broth microdilution method; format: functional; settings: ATCC 13636, 18 h
Staphylococcus aureus [30] = assay: Antibacterial activity against methicillin-resistant Staphylococcus aureus 12-33 after 18 hrs by CLSI broth microdilution method; format: functional; settings: 12-33, 18 h

Row | Compound | MIC (Escherichia coli [1]) [µg/mL] | MIC (Providencia rettgeri) [µg/mL] | MIC [2] [µg/mL] | MIC [3] [µg/mL] | CC50 at 48 h [4] [µg/mL] | MIC (Klebsiella pneumoniae [5]) [µg/mL] | MIC (Enterococcus faecalis [6]) [µg/mL] | MIC (Enterococcus faecium [7]) [µg/mL] | MIC (Staphylococcus aureus [8]) [µg/mL] | MIC (Enterococcus faecalis [9]) [µg/mL] | MIC (Staphylococcus aureus [10]) [µg/mL] | MIC (Enterococcus faecium [11]) [µg/mL] | MIC (Pseudomonas aeruginosa [12]) [µg/mL] | MIC (Proteus mirabilis) [µg/mL] | MIC (Pseudomonas aeruginosa [13]) [µg/mL] | MIC (Pseudomonas aeruginosa [14]) [µg/mL] | MIC (Citrobacter freundii) [µg/mL] | MIC [15] [µg/mL] | MIC (Enterococcus faecalis [16]) [µg/mL] | MIC (Enterococcus faecium [17]) [µg/mL] | further results
1 | CN(C)C(=N)c1ccc2cc(-c3ccc(-c4cc5ccc(C(=N)N(C)C)cc5[nH]4)nc3)[nH]c2c1 | 4 (≈ 8.9 µM) | 16 (≈ 35.6 µM) | 2 (≈ 4.45 µM) | 0.5 (≈ 1.11 µM) | 11.7 (≈ 26 µM) | 32 (≈ 71.2 µM) | 4 (≈ 8.9 µM) | 4 (≈ 8.9 µM) | 1 (≈ 2.22 µM) | 4 (≈ 8.9 µM) | 1 (≈ 2.22 µM) | 4 (≈ 8.9 µM) | > 128 | > 128 | 64 (≈ 142 µM) | > 128 | 16 (≈ 35.6 µM) | > 128 | 4 (≈ 8.9 µM) | 2 (≈ 4.45 µM) | MIC (Klebsiella pneumoniae [18]): 32 µg/mL (≈ 71.2 µM); MIC (Enterococcus faecalis [19]): 4 µg/mL (≈ 8.9 µM); MIC (Enterobacter cloacae): 8 µg/mL (≈ 17.8 µM); MIC (Escherichia coli [20]): 4 µg/mL (≈ 8.9 µM); MIC (Proteus vulgaris): 16 µg/mL (≈ 35.6 µM); MIC (Klebsiella pneumoniae [21]): 16 µg/mL (≈ 35.6 µM); MIC (Staphylococcus aureus [22]): 1 µg/mL (≈ 2.22 µM); MIC (Escherichia coli [23]): 4 µg/mL (≈ 8.9 µM); MIC [24]: 1 µg/mL (≈ 2.22 µM); MIC (Klebsiella pneumoniae [25]): 32 µg/mL (≈ 71.2 µM); MIC (Klebsiella pneumoniae [26]): > 128 µg/mL; MIC (Klebsiella aerogenes): 16 µg/mL (≈ 35.6 µM); MIC (Staphylococcus aureus [27]): 1 µg/mL (≈ 2.22 µM); MIC (Serratia marcescens): > 128 µg/mL; MIC (Escherichia coli [28]): 4 µg/mL (≈ 8.9 µM); MIC [29]: 128 µg/mL (≈ 285 µM); MIC (Staphylococcus aureus [30]): 2 µg/mL (≈ 4.45 µM)
2 | CC(C)NC(=N)c1ccc2cc(-c3cncc(-c4cc5ccc(C(=N)NC(C)C)cc5[nH]4)c3)[nH]c2c1 | > 64 | > 64 | 2 (≈ 4.19 µM) | 8 (≈ 16.7 µM) | 26.5 (≈ 55.4 µM) | > 64 | > 64 | > 64 | 8 (≈ 16.7 µM) | > 64 | 16 (≈ 33.5 µM) | > 64 | > 64 | > 64 | > 64 | > 64 | > 64 | > 64 | > 64 | > 64 | MIC (Klebsiella pneumoniae [18]): > 64 µg/mL; MIC (Enterococcus faecalis [19]): > 64 µg/mL; MIC (Enterobacter cloacae): > 64 µg/mL; MIC (Escherichia coli [20]): > 64 µg/mL; MIC (Proteus vulgaris): > 64 µg/mL; MIC (Klebsiella pneumoniae [21]): > 64 µg/mL; MIC (Staphylococcus aureus [22]): 16 µg/mL (≈ 33.5 µM); MIC (Escherichia coli [23]): > 64 µg/mL; MIC [24]: 8 µg/mL (≈ 16.7 µM); MIC (Klebsiella pneumoniae [25]): > 64 µg/mL; MIC (Klebsiella pneumoniae [26]): > 64 µg/mL; MIC (Klebsiella aerogenes): > 64 µg/mL; MIC (Staphylococcus aureus [27]): 16 µg/mL (≈ 33.5 µM); MIC (Serratia marcescens): > 64 µg/mL; MIC (Escherichia coli [28]): > 64 µg/mL; MIC [29]: > 64 µg/mL; MIC (Staphylococcus aureus [30]): 32 µg/mL (≈ 67 µM)
3 | N=C(c1ccc2cc(-c3ccc(-c4cc5ccc(C(=N)N6CCC6)cc5[nH]4)cc3)[nH]c2c1)N1CCC1 | 2 (≈ 4.23 µM) | 8 (≈ 16.9 µM) | 0.125 (≈ 0.264 µM) | 0.125 (≈ 0.264 µM) | 2.84 (≈ 6.01 µM) | 8 (≈ 16.9 µM) | 4 (≈ 8.46 µM) | 1 (≈ 2.12 µM) | 2 (≈ 4.23 µM) | 1 (≈ 2.12 µM) | 2 (≈ 4.23 µM) | 2 (≈ 4.23 µM) | 128 (≈ 271 µM) | 16 (≈ 33.9 µM) | 64 (≈ 135 µM) | 128 (≈ 271 µM) | 4 (≈ 8.46 µM) | 32 (≈ 67.7 µM) | 4 (≈ 8.46 µM) | 1 (≈ 2.12 µM) | MIC (Klebsiella pneumoniae [18]): 16 µg/mL (≈ 33.9 µM); MIC (Enterococcus faecalis [19]): 2 µg/mL (≈ 4.23 µM); MIC (Enterobacter cloacae): 8 µg/mL (≈ 16.9 µM); MIC (Escherichia coli [20]): 2 µg/mL (≈ 4.23 µM); MIC (Proteus vulgaris): 32 µg/mL (≈ 67.7 µM); MIC (Klebsiella pneumoniae [21]): 16 µg/mL (≈ 33.9 µM); MIC (Staphylococcus aureus [22]): 2 µg/mL (≈ 4.23 µM); MIC (Escherichia coli [23]): 2 µg/mL (≈ 4.23 µM); MIC [24]: 0.125 µg/mL (≈ 0.264 µM); MIC (Klebsiella pneumoniae [25]): 32 µg/mL (≈ 67.7 µM); MIC (Klebsiella pneumoniae [26]): 32 µg/mL (≈ 67.7 µM); MIC (Klebsiella aerogenes): 4 µg/mL (≈ 8.46 µM); MIC (Staphylococcus aureus [27]): 1 µg/mL (≈ 2.12 µM); MIC (Serratia marcescens): 32 µg/mL (≈ 67.7 µM); MIC (Escherichia coli [28]): 1 µg/mL (≈ 2.12 µM); MIC [29]: 8 µg/mL (≈ 16.9 µM); MIC (Staphylococcus aureus [30]): 4 µg/mL (≈ 8.46 µM)
